{"source": "patent US4788063A", "about": "“Drug delivery system” (priority 1984, dated 1988)", "key": {"[1]": {"system": "Whole blood cholinesterase", "experiment": "whole blood cholinesterase after dermal application or intramuscular injection in pigs", "assay_type": "in vivo", "conditions": "intramuscular injection, pigs (FIG. 1)", "experimental": "(§1) Laboratory animal species used throughout this study consisted of albino guinea pigs of either sex of a local strain, (Dunkin-Hadley origin), weighing between 300-400 g, and female pigs of the large White and Lundrace strain, 8-12 weeks of age, weighing 8-14 kg.\n(§2) At 30 minutes prior to dermal application of test solutions, the hair at the test sites was closely clipped. Only animals in which the skin at the test sites appeared grossly normal and was free of bites, scratches or bruises, were selected for the study.\n(§3) Treatment solutions for dermal application were freshly prepared and applied to a pre-determined area of a commercially available pad, (micropad dressing 3M No. 1610, U.S. Pat. No. 3,285,245) which in turn was secured to dorsal test-sites by an adhesive bandage, serving at the same time as an occlusive dressing. […] Intervals between bleedings were 2 hours in guinea pigs, and 30 minutes in pigs.\n(§4) Cholinesterase Determinations: Whole blood cholinesterase activity was determined by the method of Ellman [G.L. Ellman et al, Biochem. Pharmacol. 7, 83 (1961)], or by that described by Johnson and Russell [C.D. Johnson and R. L. Russell, Anal Biochem 64, 229 (1975)]. Data obtained in experimental animals (guinea pigs and pigs) show a remarkable prolonging of the duration of action of the dermally applied drug when compared with systemic administration."}, "[2]": {"system": "Whole blood cholinesterase", "experiment": "whole blood cholinesterase after dermal application or injection in guinea pigs", "assay_type": "in vivo", "conditions": "injection, guinea pigs (FIG. 2)", "experimental": "as §1, §2, §3, §4"}, "memory disorders": {"system": "memory disorders", "conditions": "SDAT patients, intravenous infusion at a rate of 3.4-14 μg/kg. hr; cited from earlier work"}}, "data": [{"smiles": "CNC(=O)Oc1ccc2c(c1)[C@]1(C)CCN(C)[C@@H]1N2C", "note": "[physostigmine]", "values": [{"measurement": "duration of the effect", "setting": "[1]", "value": "2 to 3", "unit": "h"}, {"measurement": "duration of the effect", "setting": "[2]", "value": "2 to 3", "unit": "h"}, {"measurement": "effect on memory disorders", "setting": "memory disorders", "value": "improvement in memory disorders"}]}]}
